According to the CheMixHub viscosity set:

Test: xn = mol fraction of the nth substance listed

CCCC[n+]1ccc(C)cc1.[Cl][Al-]([Cl])([Cl])[Cl] + Cc1ccccc1
101 kPa, x2 = 0.38
Conditions | viscosity [mPa·s]
298.15 K | 13.8
303.15 K | 12.8
308.15 K | 10.8
313.15 K | 9.4
318.15 K | 8.5
323.15 K | 7.6

CCCCCCCCn1cc[n+](C)c1.[Cl-] + CCO
Conditions | viscosity [mPa·s]
298.15 K, 101 kPa, x2 = 0.1305 | 5426

Cc1c[nH]c(=O)[nH]c1=O + O
viscosity [mPa·s], 101.3 kPa
Conditions | 293.15 K | 298.15 K | 303.15 K | 308.15 K | 313.15 K | 318.15 K
x1 = 0.000119 | 1.006 | 0.895 | 0.803 | 0.738 | 0.623 | 0.595
x1 = 0.000164 | – | 0.893 | – | 0.722 | – | 0.598
x1 = 0.0001877 | 1.008 | 0.897 | 0.805 | 0.74 | 0.625 | 0.597
x1 = 0.000266 | – | 0.895 | – | 0.723 | – | 0.6
x1 = 0.0003006 | 1.01 | 0.899 | 0.807 | 0.742 | 0.627 | 0.599
x1 = 0.0003339 | – | 0.896 | – | 0.724 | – | 0.6
x1 = 0.0003713 | – | 0.896 | – | 0.724 | – | 0.601
x1 = 0.0003733 | 1.012 | 0.901 | 0.809 | 0.744 | 0.629 | 0.601
x1 = 0.0004194 | – | 0.897 | – | 0.725 | – | 0.601
x1 = 0.0004572 | 1.014 | 0.903 | 0.811 | 0.746 | 0.631 | 0.603
x1 = 0.0004811 | – | 0.898 | – | 0.726 | – | 0.602
x1 = 0.0005454 | 1.016 | 0.905 | 0.813 | 0.748 | 0.633 | 0.605

COc1ccc(C=O)cc1 + Cc1ccc(O)cc1
Conditions | viscosity [mPa·s]
308.15 K, 101 kPa, x1 = 0.8868 | 3.965

CCOc1ccccc1 + CN(C)C=O
viscosity [mPa·s], 101.33 kPa
Conditions | x1 = 0.031 | x1 = 0.091 | x1 = 0.153 | x1 = 0.223 | x1 = 0.304 | x1 = 0.463 | x1 = 0.556 | x1 = 0.642 | x1 = 0.8
298 K | 0.815 | 0.839 | 0.862 | 0.889 | 0.919 | 0.978 | 1.012 | 1.042 | 1.097
303 K | 0.769 | 0.788 | 0.808 | 0.831 | 0.857 | 0.907 | 0.936 | 0.963 | 1.01
308 K | 0.73 | 0.747 | 0.763 | 0.783 | 0.804 | 0.847 | 0.871 | 0.893 | 0.933

COc1ccc(C=O)cc1 + Cc1ccccc1O
308.15 K, 101 kPa
Conditions | viscosity [mPa·s]
x1 = 0.7753 | 3.815
x1 = 0.8859 | 3.475

COc1ccc(C=O)cc1 + CCCCOCCO
viscosity [mPa·s], 101 kPa
Conditions | x1 = 0.1088 | x1 = 0.2154 | x1 = 0.3201 | x1 = 0.4227 | x1 = 0.5234 | x1 = 0.6223 | x1 = 0.7193 | x1 = 0.8146 | x1 = 0.9081
303.15 K | 2.197 | 2.089 | 2.055 | 2.09 | 2.191 | 2.354 | 2.575 | 2.852 | 3.18
308.15 K | 2.107 | 2.006 | 1.963 | 1.973 | 2.035 | 2.145 | 2.3 | 2.499 | 2.738
313.15 K | 1.984 | 1.912 | 1.881 | 1.888 | 1.932 | 2.01 | 2.121 | 2.262 | 2.432
318.15 K | 1.836 | 1.786 | 1.766 | 1.773 | 1.806 | 1.865 | 1.947 | 2.051 | 2.175

CCOC(C)=O + CCCO
viscosity [mPa·s], 101 kPa
Conditions | 298.15 K | 313.15 K
x1 = 0.046 | 1.597 | 1.158
x1 = 0.0998 | 1.337 | 0.987
x1 = 0.1992 | 1.007 | –
x1 = 0.2966 | 0.802 | –
x1 = 0.4052 | 0.694 | –
x1 = 0.5009 | 0.601 | –
x1 = 0.5421 | 0.576 | 0.482
x1 = 0.5948 | 0.558 | 0.466
x1 = 0.7034 | 0.509 | –
x1 = 0.7964 | 0.475 | –
x1 = 0.9033 | 0.448 | –
x1 = 0.9542 | 0.45 | –

COC(=O)CC(C)=O + CC(C)O
viscosity [mPa·s], 101.3 kPa
Conditions | x1 = 0.1028 | x1 = 0.2052 | x1 = 0.3051 | x1 = 0.4085 | x1 = 0.4086 | x1 = 0.5084 | x1 = 0.6057 | x1 = 0.7079 | x1 = 0.8053 | x1 = 0.9038
298.15 K | 1.457 | 1.267 | 1.195 | 1.168 | – | 1.16 | 1.189 | 1.243 | 1.315 | 1.419
303.15 K | 1.279 | 1.124 | 1.068 | 1.051 | – | 1.049 | 1.08 | 1.127 | 1.197 | 1.287
308.15 K | 1.023 | 1.006 | 0.963 | – | 0.952 | 0.956 | 0.985 | 1.032 | 1.094 | 1.133

CCCCCCC(=O)O + c1ccccc1
298.15 K, 101 kPa
Conditions | viscosity [mPa·s]
x1 = 0.03 | 0.631
x1 = 0.063 | 0.666
x1 = 0.096 | 0.705
x1 = 0.13 | 0.752
x1 = 0.29 | 0.99
x1 = 0.38 | 1.168
x1 = 0.47 | 1.49
x1 = 0.71 | 2.3

CC(=O)N(C(C)C)C(C)C + O
298.16 K, 101 kPa
Conditions | viscosity [mPa·s]
x2 = 0.0812 | 2.4
x2 = 0.2041 | 2.83
x2 = 0.3933 | 3.61
x2 = 0.5827 | 4.68
x2 = 0.6893 | 5.21
x2 = 0.7296 | 5.3
x2 = 0.7747 | 5.26
x2 = 0.8218 | 4.96
x2 = 0.856 | 4.59

COC(=O)CC(C)=O + CCCCCCC(C)O
viscosity [mPa·s], 101.3 kPa
Conditions | x1 = 0.1041 | x1 = 0.2072 | x1 = 0.3091 | x1 = 0.4101 | x1 = 0.5107 | x1 = 0.6079 | x1 = 0.7081 | x1 = 0.807 | x1 = 0.9036
298.15 K | 4.231 | 3.315 | 2.753 | 2.358 | 2.075 | 1.9 | 1.699 | 1.574 | 1.52
303.15 K | 3.511 | 2.796 | 2.344 | 2.026 | 1.796 | 1.661 | 1.506 | 1.413 | 1.374
308.15 K | 2.939 | 2.377 | 2.015 | 1.756 | 1.567 | 1.476 | 1.352 | 1.279 | 1.251
